Entries after “also recorded” stand apart in the source; their conditions may differ. Blank lines part the entries; values can stand above or below the molecule they belong to.
Assays:
[1] = Expert taster flavor and aroma levels (threshold, recognition, fatty flavor) in regular or soluble coffee brew; conditions: about 1 to 1.5% coffee solids brew; for Recognition Level: woody note
Source text: The threshold level is that quantity of flavoring producing a change in cup flavor and aroma, but a change which cannot be described as a particular flavor. The recognition level is the quantity of flavoring which can be defined as imparting a woody note to the brew. The fatty level is that point where the undesirable fatty flavor becomes apparent and detracts from the woody character of the flavoring noted at lower levels.

[2] = General flavor characterization by flavor experts; conditions: 50 ppm or higher
[3] = Taste comparison in instant Maxwell House coffee beverage (Example XI); conditions: for Taste comparison with control: 1.35% coffee solids (Example XIA)
Source text: A. A taste comparison was made of instant Maxwell House brand coffee beverage containing 1.35% coffee solids enhanced with 1 ppb and 2 ppb trans-2-nonenal.
B. Example XIA was repeated employing a broader range of flavor enhancement.

[4] = Taste comparison in spray dried instant Maxwell House coffee containing synthetic winey, buttery flavor (Example XII); conditions: 2 ppb; 1.35% coffee solids brew
Source text: Spray dried instant Maxwell House brand coffee containing a synthetic, winey, buttery flavor was compared to an identical sample containing an additional 2ppb trans-2-nonenal.

[5] = Taste comparison in freeze dried Maxim soluble coffee (Example XIII)
[6] = Taste comparison in freeze dried Maxim soluble coffee with steam generated aroma (Example XIV); conditions: 2 ppb
[7] = Flavor evaluation in water and soluble coffee (Example XVI)
Source text: A ten percent ethanolic solution of trans-2-nonenal (Compagnie Parento, Croton-on-Hudson, New York) was passed through a Perkin-Elmer model 900 gas chromatography unit having a 6-foot by 1/8 inch column packed with 10% diethylene glycol succinate polyester on 80/90 Anakrom ABS.

[8] = Expert panel flavor evaluation in instant Maxwell House coffee (Example XVII); conditions: two parts per billion; 1.35% coffee solids
Source text: An expert panel flavor evaluation was made of trans-2-nonenal, purified as in Example XVI, at a level of two parts per billion in instant Maxwell House brand soluble coffee at a 1.35% coffee solids concentration.

[9] = Flavor comparison in Sanka decaffeinated soluble coffee (Example XVIII); conditions: 2 ppb
[10] = Flavor evaluation of retention on freeze drying of coffee extract (Example XX); assay type: physicochemical; conditions: theoretical 2 ppb
Procedure: Trans-2-nonenal (5 mg in one ml of ethanol) is added to 500 ml of distilled water and the aqueous mixture poured into 52 pounds of coffee extract of 28.2% coffee solids. The coffee-nonenal mixture is stirred and then poured into trays and frozen to form 3/8 inch thick slabs. Control slabs are also prepared from the same extract without the addition of flavors.
The slabs are freeze dried in a 50 square foot Stokes Freeze Drier under 150 microns pressure. […] Condenser temperature is maintained at -40°F.
A flavor evaluation is made by dissolving 0.65 gms of trans-2-nonenal aromatized freeze dried coffee and 2.60 gms of freeze dried control in eight bunces of hot water to give a theoretical 2 ppb concentration. Control cups are prepared by dissolving 3.25 gms of freeze dried control coffee in eight ounces of hot water and adding thereto 10 microliters of a 5 ml aqueous solution containing 0.25 mg trans-2-nonenal to give a 2 ppb concentration.

[11] = Triangular odd cup flavor evaluation of retention on spray drying of coffee extract (Example XXI); assay type: physicochemical
Procedure: To 500 ml of distilled water is added 2.34 mg of trans-2-nonenal dissolved in 1 ml of ethanol. The aqueous mix is added to 40 pounds of coffee extract (24.5% solids) and the mixture is spray dried.
Unaromatized extract is spray dried umder equivalent conditions for use as a control. A flavor evaluation is made by dissolving 3.25 g of the aromatized coffee in eight ounces of hot water. Control cups are prepared by dissolving in each cup 3.25 g of control coffee in eight ounces of hot water and then adding thereto 10 microliters of a solution of 0.24 mg trans-2-nonenal in 5 ml of water.

[12] = Flavor comparison in 100% Robusta spray dried soluble coffee (Example XXIV); conditions: 2 ppb
[13] = Evaluation in various foodstuffs versus control (Example XXV)
Procedure: To various foodstuffs is added minute amounts of the enhancing compounds of this invention at the proportions indicated. The foodstuffs are then evaluated by comparison to a control not containing the enhancer.

[14] = Taste comparison in instant Postum beverage (Example XXVI)
Procedure: A solution of trans-2-nonenal was prepared by dissolving 20 mg of the aldehyde in 50 ml of ethanol. One half of a milliliter of the resulting solution was then dissolved in 50 ml of spring water to yield a 0.2 mg/50 ml solution. The spring water solution was employed to prepare enhanced instant Postum by adding a sufficient amount to two grams of Postum dissolved in 200 ml of boiling spring water to give 5, 10, 20, and 30 ppb concentrations of nonenal in the hot Postum beverage. These beverages were compared with a control of 2 grams Postum dissolved in 200 ml boiling spring water by several expert tasters.

[15] = Flavor effect in whisky and carbonated and non-carbonated beverages

Compound: CCCCCC/C=C/C1OCCO1 [1-Octenyl-1-dioxolane, trans-1-octenyl-2-dioxolane]
Threshold Level [1]: 0.3 ppb
Undesired Fatty Flavor Becoming Apparent [1]: 1000 ppb
Recognition Level [1]: 0.8 ppb

Compound: CCCCCC/C=C\COC(C)=O [cis-2-nonenyl acetate]
Threshold Level [1]: 50 ppb
Undesired Fatty Flavor Becoming Apparent [1]: 1500 ppb
Recognition Level [1]: 150 ppb

Woody flavor of freeze dried aromatized sample relative to control ([10]; after freeze drying): about ninety
Difference between aromatized and control cups ([11]; triangular, odd cup flavor evaluation): no difference between the cups
Compound: CCCCCC/C=C/C=O [trans-2-nonenal]
Threshold Level [1]: 0.05-0.2 ppb
Undesired Fatty Flavor Becoming Apparent [1]: 16 ppb
Recognition Level [1]: 0.4-0.6 ppb
Flavor when tasted at conventional flavor concentrations [2]: unpleasant, rancid fat flavor
Flavor Comments ([3]; 0.2 ppb in the brew): detectable subtle flavor
Flavor Comments ([3]; 0.4 ppb in the brew): subtle recognition of woodiness
Flavor Comments ([3]; 0.6 ppb in the brew): definite recognition of woodiness
Flavor Comments ([3]; 1 ppb in the brew): woody and smoother
Taste comparison with control ([3]; 1 ppb): did not give a detectable woody flavor, but did balance or blend the coffee flavor and masked the caramel and acid flavor of the control
Flavor Comments ([3]; 2 ppb in the brew): woody and groundsy
Taste comparison with control ([3]; 2 ppb): improved woody regular coffee flavor and lacked the typical caramel and acid notes of the control
Flavor Comments ([3]; 8 ppb in the brew): high woody impact
Flavor Comments ([3]; 16 ppb in the brew): tallowy flavor
Flavor Comments ([3]; 30 ppb in the brew): burnt, fatty
Flavor Comments ([3]; 40 ppb in the brew): burnt, fatty and rancid
Flavor comparison with identical sample without additive [4]: very desirable balanced flavor, having prominent winey, buttery and woody regular coffee notes
Taste comparison with control ([5]; 1 ppb): while woodiness was not evident, there was an improved balanced cup flavor and a reduction in sourness
Taste comparison with control ([5]; 2 ppb): improved woody regular coffee note. In addition, the typically winey and buttery notes of the coffee were better balanced and the typical sourness of the brew was masked
Flavor comparison with control [6]: very good regular coffee flavor, the brew having improved cup flavor and lacking sourness when compared to the control
Flavor in water ([7]; 2 ppb and 20 ppb in water): regular coffee flavor characterized by experts as woody or spent grounds
Concentration at which expert tasters find undesirable flavors ([7]; not apparent to less skilled tasters): about 16 ppm
Expert panel flavor evaluation [8]: slight spent grounds flavor which improved the regular brewed character of the coffee; also recorded: desirable blending or mixing of flavor and a secondary aromatic flavor similar to that produced by the addition of steam generated aroma
Flavor comparison with control [9]: improved woody flavor and good balance of cup flavor and aroma
Loss of aroma during freeze drying [10]: slight loss of trans-2-nonenal aroma during freeze drying
Loss during spray drying [11]: no significant loss of trans-2-nonenal during spray drying
Flavor comparison with control [12]: improved woody cup flavor and aroma
Evaluation ([13]; Ex. 1 Cola beverage, 2 ppb): Woody
Evaluation ([13]; Ex. 2 Pear nectar, 1 ppb): Increased pear flavor
Evaluation ([13]; Ex. 3 Ginger ale, 2 ppb): Woody
Evaluation ([13]; Ex. 5 Cranberry juice, 2 ppb): Woody
Evaluation ([13]; Ex. 7 Condensed beef broth, 2 ppb): High woody
Evaluation ([13]; Ex. 8 Root Beer beverage, 1 ppb): Enhanced flavor
Evaluation ([13]; Ex. 8 Root Beer beverage, 2 ppb): High woody
Evaluation ([13]; Ex. 9 Creme Soda, 2 ppb): High woody
Evaluation ([13]; Ex. 11 Cherry gelatin dessert, 2 ppb): Woody
Evaluation ([13]; Ex. 12 Artificially sweetened cola beverage, 2 ppb): Woody
Evaluation ([13]; Ex. 13 Meat broth, 1 ppb): Higher flavor impact
Effect on molasses flavor and woody flavor of Postum [14]: reduced appreciably the characteristic molasses flavor of Postum and imparted a slight woody flavor
Effect on sweet, cereal taste of Postum [14]: significant reduction in the sweet, cereal taste of the beverage
Taste preference ([14]; 5 ppb and 10 ppb): preferred
Flavor in beverages [15]: low level woody note not detectable as coffee flavor which enhances the basic flavor of the beverage

Compound: CCCCCC/C=C/C(OCC)OCC [trans-2-nonene diethyl acetal]
Threshold Level [1]: 0.02 ppb
Undesired Fatty Flavor Becoming Apparent [1]: 1200 ppb
Recognition Level [1]: 0.03 ppb

Compound: CCCCCC/C=C/C(OC)OC [trans-2-nonene dimethyl Acetal, trans-2-nonene dimethyl acetal]
Threshold Level [1]: 0.03 ppb
Undesired Fatty Flavor Becoming Apparent [1]: 800 ppb
Recognition Level [1]: 0.08 ppb

Compound: CCCCCC/C=C/COC(C)=O [trans-2-nonenylacetate, Trans-2-nonenyl acetate]
Threshold Level [1]: 100 ppb
Undesired Fatty Flavor Becoming Apparent [1]: 1500 ppb
Recognition Level [1]: 200 ppb

Source: patent US3962321A, “Enhancement of coffee flavor” (General Foods Corporation, priority 1973, dated 1976)
